Data reported in ChEMBL document CHEMBL1201862, “PubChem BioAssay data set” (2004).
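48-hour exposure; five concentrations; linearly interpolated endpoints. At the GI50, growth is halved.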 Calls of active or inactive are those of the source. Cut-off read from the data, not from the text of the source: active = GI50 up to about 1.1 µM and inactive = higher.

Experiments:
Assay in all cases: NCI anticancer screen, dose series, 48 h
KM12 = tested on: KM12
NCI/ADR-RES = tested on: NCI/ADR-RES
HOP-92 = tested on: HOP-92
HT-29 = tested on: HT-29
HL-60 = tested on: HL-60
CCRF-CEM = tested on: CCRF-CEM
OVCAR-3 = tested on: OVCAR-3
NCI-H460 = tested on: NCI-H460
RPMI-8226 = tested on: RPMI-8226
HCT-15 = tested on: HCT-15
UACC-62 = tested on: UACC-62
NCI-H23 = tested on: NCI-H23
SNB-75 = tested on: SNB-75
NCI-H522 = tested on: NCI-H522
HOP-62 = tested on: HOP-62
SK-MEL-28 = tested on: SK-MEL-28
SK-MEL-2 = tested on: SK-MEL-2
OVCAR-4 = tested on: OVCAR-4
MDA-N = tested on: MDA-N
A498 = tested on: A498

Structure (SMILES)	GI50 (KM12)	GI50 (NCI/ADR-RES)	GI50 (HOP-92)	GI50 (HT-29)	GI50 (HL-60)	GI50 (CCRF-CEM)	GI50 (OVCAR-3)	GI50 (NCI-H460)	GI50 (RPMI-8226)	GI50 (HCT-15) [µM]	GI50 (UACC-62)	GI50 (NCI-H23)	GI50 (SNB-75)	GI50 (NCI-H522)	GI50 (HOP-62)	GI50 (SK-MEL-28)	GI50 (SK-MEL-2)	GI50 (OVCAR-4)	GI50 (MDA-N)	GI50 (A498)
Cc1sc(NC=C2C(=O)CC(C)(C)CC2=O)nc1-c1ccccc1	> 100 µM (inactive)	> 100 µM (inactive)	> 100 µM (inactive)	> 100 µM (inactive)	2.17 µM (inactive)	72.6 µM (inactive)	> 100 µM (inactive)	> 100 µM (inactive)	> 100 µM (inactive)	> 100	> 100 µM (inactive)	> 100 µM (inactive)	> 100 µM (inactive)	80.5 µM (inactive)	> 100 µM (inactive)	> 100 µM (inactive)	> 100 µM (inactive)	> 100 µM (inactive)	> 100 µM (inactive)	
CC1=CC[C@@H]2[C@@H](CC[C@@]2(C)O)C(C)(C)[C@H]1CC[C@@H]1[C@@]2(C)CC[C@@H](O)C(C)(C)O[C@@H]2CC[C@]1(C)O			12.5 µM (inactive)		21.4 µM (inactive)	> 10 µM (inactive)	42.8 µM (inactive)	17.7 µM (inactive)	18.9 µM (inactive)	18.2	15.5 µM (inactive)	24.5 µM (inactive)			23.2 µM (inactive)	16.8 µM (inactive)	34 µM (inactive)	37.2 µM (inactive)	22.5 µM (inactive)	15 µM (inactive)
CCOC(=O)NC(Nc1ccc(S(=O)(=O)Nc2ncccn2)cc1)(C(=O)OCC)C(F)(F)F (centres undefined)	> 100 µM (inactive)	> 100 µM (inactive)	> 100 µM (inactive)	> 100 µM (inactive)	> 100 µM (inactive)	> 100 µM (inactive)	> 100 µM (inactive)	> 100 µM (inactive)	> 100 µM (inactive)	> 100	> 100 µM (inactive)	> 100 µM (inactive)	> 100 µM (inactive)	> 100 µM (inactive)	> 100 µM (inactive)	> 100 µM (inactive)	> 100 µM (inactive)	> 100 µM (inactive)	> 100 µM (inactive)	
CNC(=S)/C(=N\Nc1[nH]cnc1C(N)=O)C(N)=S	4.09 µM (inactive)	1.36 µM (inactive)	3 µM (inactive)	16.1 µM (inactive)		0.689 µM (active)	6.43 µM (inactive)	5.31 µM (inactive)	1.14 µM (inactive)	15.1	3.22 µM (inactive)	17.3 µM (inactive)	6.82 µM (inactive)	10.9 µM (inactive)	19.2 µM (inactive)	69.7 µM (inactive)	0.875 µM (active)	4.17 µM (inactive)	4.34 µM (inactive)	
Cc1ccc(NC(=S)NNC(=O)c2cc(-c3ccccc3)nc3ccccc23)cc1	11.1 µM (inactive)	14 µM (inactive)	11.8 µM (inactive)	24 µM (inactive)			7.89 µM (inactive)	18.7 µM (inactive)	4.59 µM (inactive)	7.13	12.5 µM (inactive)	12.6 µM (inactive)	12.2 µM (inactive)	14.7 µM (inactive)	13.2 µM (inactive)	5.96 µM (inactive)	10.3 µM (inactive)	17.9 µM (inactive)	4.26 µM (inactive)	
CN1C(=O)C(/C=N/NC(=O)c2cccnc2)C(N)N(C)C1=O (centres undefined)	> 100 µM (inactive)	> 100 µM (inactive)		> 100 µM (inactive)		> 100 µM (inactive)	> 100 µM (inactive)	> 100 µM (inactive)	> 100 µM (inactive)	> 100	> 100 µM (inactive)	> 100 µM (inactive)	> 100 µM (inactive)	> 100 µM (inactive)	> 100 µM (inactive)	> 100 µM (inactive)	35.3 µM (inactive)	> 100 µM (inactive)	> 100 µM (inactive)	
COc1ccc2c(c1)nc1n2C(c2c(F)cccc2Cl)SC1 (centres undefined)	2.76 µM (inactive)	1.56 µM (inactive)	> 37.3 µM (inactive)	4.52 µM (inactive)	1.26 µM (inactive)	3.1 µM (inactive)		3.68 µM (inactive)		3.03	7.26 µM (inactive)	3.59 µM (inactive)	1.68 µM (inactive)			5 µM (inactive)			1.35 µM (inactive)	5.89 µM (inactive)
COc1cc2c(c(OC)c1OC)C(=O)[C@H](O)[C@H]2NC(N)=O	> 100 µM (inactive)	> 100 µM (inactive)		> 100 µM (inactive)	90.8 µM (inactive)	> 100 µM (inactive)	82 µM (inactive)	66.8 µM (inactive)	> 100 µM (inactive)	27.7	17.6 µM (inactive)	53.8 µM (inactive)	23.3 µM (inactive)	> 100 µM (inactive)	> 100 µM (inactive)	> 100 µM (inactive)			> 100 µM (inactive)	
Cc1cc(=O)oc2c(CNC(Cc3ccccc3)C(=O)O)c(O)ccc12 (centres undefined)	> 100 µM (inactive)	> 100 µM (inactive)	> 100 µM (inactive)	> 100 µM (inactive)	> 100 µM (inactive)	> 100 µM (inactive)	> 100 µM (inactive)	> 100 µM (inactive)	> 100 µM (inactive)	> 100	> 100 µM (inactive)	> 100 µM (inactive)	82.2 µM (inactive)	> 100 µM (inactive)	> 100 µM (inactive)	> 100 µM (inactive)	> 100 µM (inactive)	> 100 µM (inactive)	> 100 µM (inactive)	
CCCCCCCC(CC(=O)NC(CO)C(=O)NC(CO)CC(C)C)OC(=O)CC(CCCCCCC)OC(=O)CC(CCCCCCC)OC1OC(C)C(O)C(OC2OC(C)C(O)C(O)C2OC(C)=O)C1O (centres undefined)	2.74 µM (inactive)		10.2 µM (inactive)	3.6 µM (inactive)	3 µM (inactive)	3.15 µM (inactive)	12.9 µM (inactive)	4.07 µM (inactive)			5.9 µM (inactive)	7.8 µM (inactive)	4.29 µM (inactive)	12.6 µM (inactive)	12.9 µM (inactive)	9.64 µM (inactive)		5.64 µM (inactive)	3.46 µM (inactive)	15.8 µM (inactive)
CC(=O)c1sc(Nc2ccc(Cl)c(Cl)c2)nc1C	65.2 µM (inactive)	> 100 µM (inactive)		76.4 µM (inactive)			29.8 µM (inactive)	> 100 µM (inactive)	64.4 µM (inactive)	93.8	> 100 µM (inactive)	> 100 µM (inactive)	54.1 µM (inactive)		69.2 µM (inactive)	> 100 µM (inactive)		> 100 µM (inactive)	> 100 µM (inactive)	32.4 µM (inactive)
COC(=O)c1ccc(C)cc1CC1Cc2cccc(C)c2C1=O (centres undefined)	4.08 µM (inactive)	5.16 µM (inactive)	16 µM (inactive)	2.42 µM (inactive)		4.73 µM (inactive)	4.95 µM (inactive)	4.89 µM (inactive)		3.1	9.57 µM (inactive)	11.1 µM (inactive)	5.02 µM (inactive)	2.37 µM (inactive)	17.9 µM (inactive)	7.41 µM (inactive)	4.34 µM (inactive)	19.2 µM (inactive)	1.87 µM (inactive)	
C[C@@H](c1ccccc1)n1c(N)c(C#N)c2ccc([N+](=O)[O-])cc2c1=O	16.7 µM (inactive)	7.1 µM (inactive)	7.13 µM (inactive)	14.5 µM (inactive)	8.75 µM (inactive)	14.6 µM (inactive)		14.5 µM (inactive)		12.9	13.2 µM (inactive)	18.9 µM (inactive)	5.51 µM (inactive)			15 µM (inactive)	> 100 µM (inactive)	14.2 µM (inactive)	23.1 µM (inactive)	6.27 µM (inactive)
CCOc1ccc2c(c1)NC(=O)C(C1OC(c3ccccc3)=CC1=O)S2 (centres undefined)	23.9 µM (inactive)	24.9 µM (inactive)		20.2 µM (inactive)	44.8 µM (inactive)	1.9 µM (inactive)	20.1 µM (inactive)	16.3 µM (inactive)	12 µM (inactive)	21.8	15 µM (inactive)	28.2 µM (inactive)		10.4 µM (inactive)	53.2 µM (inactive)	31 µM (inactive)	40.1 µM (inactive)		25.1 µM (inactive)	> 100 µM (inactive)
COC(=O)CCC(C)C1CCC2C3C(C[C@H](OC(C)=O)[C@]12C)[C@@]1(C)CCC2(C[C@H]1C[C@H]3OC(C)=O)OOC1(CC[C@]3(C)C4C[C@H](OC(C)=O)[C@]5(C)C(C(C)CCC(=O)OC)CCC5C4[C@H](OC(C)=O)C[C@@H]3C1)OO2 (some centres undefined)	> 100 µM (inactive)	> 100 µM (inactive)		> 100 µM (inactive)	38.3 µM (inactive)	14.8 µM (inactive)	> 100 µM (inactive)	50.7 µM (inactive)	> 100 µM (inactive)	> 100		84.7 µM (inactive)	68.4 µM (inactive)	> 100 µM (inactive)	> 100 µM (inactive)	> 100 µM (inactive)	> 100 µM (inactive)	> 100 µM (inactive)	> 100 µM (inactive)	
CC(C)=Nn1cnc(C(=N)C#N)c1N		> 100 µM (inactive)		> 100 µM (inactive)	> 100 µM (inactive)	> 100 µM (inactive)	> 100 µM (inactive)	> 100 µM (inactive)	> 100 µM (inactive)	> 100	> 100 µM (inactive)	> 100 µM (inactive)	37.1 µM (inactive)	> 100 µM (inactive)	> 100 µM (inactive)	> 100 µM (inactive)	> 100 µM (inactive)	> 100 µM (inactive)	> 100 µM (inactive)	
